This test deals with glioblastoma initiating cells (GICs). The experiment in a line: survival of mice implanted intracranially with GICs and treated with TMZ. Format: in vivo, athymic nude mice. Particulars: control cells; intraperitoneal TMZ 20 mg/Kg/day for 5 days. As to the method: FIGS. 6A-6F illustrates the effect of clustered microRNAs on GBM cells treated with TMZ or irradiation. […] Dotted lines represent animals treated with TMZ. Different line colors represent the different overexpressed clusters.
Furthermore, in an in vivo model, mice were intracranially implanted with glioblastoma initiating cells (GICs) expressing either control vector, Cluster 3 or Cluster 5 vector and treated with intraperitoneal TMZ injections (20 mg/Kg/day for 5 days).

Structures are written as SMILES.

`Cn1nnc2c(C(N)=O)ncn2c1=O` [TMZ, temozolomide]: the survival benefit is about 40%.

(Values after patent publication US11946064B2, “Compositions and therapeutic methods of microRNA gene delivery” (The Brigham and Women's Hospital, Inc., priority 2018, dated 2024).)
